According to US20250213549A1, “COMPOSITION COMPRISING NICOTINAMIDE, NICOTINAMIDE PRECURSORS, NICOTINAMIDE METABOLITES OR COMBINATIONS THEREOF FOR PREVENTING OR REDUCING ONE OR MORE POST-ACUTE SYMPTOMS OF INFECTIOUS DISEASES” (CONARIS Research Institute AG, priority 2022, published 2025):

How the values were obtained:
[1] = system: antibodies directed against the spike (S) protein of SARS-CoV-2; experiment: Anti-S antibody levels (AProof Duo Test ELISA) at 6-month follow-up, COVit-2 trial; assay type: in vivo, human
From the text: (§1) In the monocentric, randomized, double-blind, prospective, placebo-controlled dietary intervention trial COVit-2 (DRKS00021214; NCT04751604) conducted at the Department of Internal Medicine I of the University Medical Center Schleswig-Holstein, Campus Kiel (Germany), outpatients with early symptomatic COVID-19 (up to 7 days after their first positive SARS-CoV-2 PCR test) in domestic quarantine were recruited from February 2021 to January 2022. As the vaccinations against SARS-CoV-2 became available to the broader public only after several hundred patients had already been recruited into the COVit-2 trial, partly or fully vaccinated patients were excluded from participation to maintain the same inclusion population and ensure formal comparability of all patients within the trial. However, there is no reason or evidence to assume that the fundamental metabolic and microbiota-targeting effects of nicotinamide could be any different in symptomatic COVID-19 patients with or without prior vaccination.
(§2) For details of the trial, see Wätzig & Schreiber 2021, PCT/EP2021/083138. Patients were randomized to oral self-administration (once daily with breakfast for 28 days) of either a combination of two different nicotinamide tablets (one conventional 500-mg immediate-release nicotinamide tablet and one novel 500-mg controlled-ileocolonic-release nicotinamide [CICR-NAM]tablet, which ensures prolonged and continuous intestinal exposure to nicotinamide) or matching placebo tablets. The entire trial was conducted remotely. Patients registered online and were contacted by the study team to check their eligibility and to supply the written patient information and informed consent forms. After informed consent, patients were called for baseline data acquisition (week 0) and subsequently at week 2, week 4 and week 6. The queried baseline information included personal and demographic data, smoking status, comorbidities, concomitant administration of dietary supplements or medicaments as well as COVID-19 symptoms. At weeks 2, 4 and 6, regular intake of the trial supplements and concomitant supplements and medicaments, respectively, was queried as well as the current COVID-19 symptoms and disease course.
For the antibody level measurements, the time between the positive SARS-CoV-2 PCR test and the date of blood sampling for antibody analysis as well as, if applicable, the intervals between one or more subsequent vaccinations against SARS-CoV-2 and the blood sampling date were recorded. Antibody levels were measured using the AProof Duo Test (Adversis Pharma, now AP Diagnostics; Leipzig, Germany). In this test, dried blood spot samples are rehydrated and analysed by ELISAs detecting antibodies directed against the nucleocapsid (N) or spike (S) protein of SARS-CoV-2. Antibodies against the N protein are analysed to evaluate immunity generated only by SARS-CoV-2 infection. After infection with SARS-CoV-2, levels of antibodies against the S protein can represent both the consequences of infection (if no additional vaccination is performed) or of the combined humoral immunity generated by infection and subsequent vaccination(s). Between the 6-week observation period of the acute infection and the follow-up after at least 6 months, many trial participants had been vaccinated against SARS-CoV-2. Anti-N antibody levels were quantified as percent of the signal of a positive control consisting of an anti-N antibody pool from five donors collected at different time points starting 2 weeks after PCR-confirmed infection with SARS-CoV-2. This anti-N antibody pool was diluted in the negative control medium at a fixed ratio. The detection was considered negative if below 20% of the positive control, borderline for 20-30% and positive if above 30%. Anti-S antibody protein levels were quantified as binding antibody units per milliliter (BAU/mL; according to the WHO International Standard for anti-SARS-CoV-2 immunoglobulin [human][NIBSC code 20/136]). […]

[2] = system: COVID-19 patients; experiment: Impaired sense of smell at 6 months after COVID-19, COVit-2 risk factor population; assay type: in vivo, human
From the text: as §2, with “At weeks 2, 4 and 6, regular intake of the trial supplements and concomitant supplements and medicaments, respectively, was queried as well as the current COVID-19 symptoms and disease course.” left out
(§3) Approximately 6 months after infection, patients were contacted for follow-up interviews and a large battery of questionnaires and tests including antibody level measurements. […] A validated smell test (University of Pennsylvania Smell Identification Test™; Sensonics/MediSense) was performed by the patient and recorded as patient-reported outcome by a paper questionnaire. […]

[3] = system: COVID-19 patients (PCS); experiment: PCS score at 6 months after COVID-19 in PCS risk factor population, COVit-2; details: PCS risk factor population (more than 5 predictors), N = 70
From the text: In this PCS score, 12 long-term symptom complexes (fatigue, cough/wheezing, neurological ailments, joint/muscle pain, ear-nose-throat ailments, gastrointestinal ailments, sleeping disturbance, exercise intolerance, infection signs, chemosensory deficits, chest pain and dermatological ailments) are combined with different weights.
In order to characterize a relevant subpopulation of the risk factor population as defined above that was additionally at risk for the development of PCS, baseline characteristics and symptoms of all available patients of the placebo population (n=425) were used to identify predictors for a PCS score of ≥5 at month 6 with a significance threshold of P<0.05. These predictors were the following: • medical history: chronic obstructive pulmonary disease, organ transplantation, depression, other chronic diseases, permanent intake of medication; • symptoms from the onset of COVID-19 until the trial baseline: shortness of breath, whistling/wheezing breathing, dizziness, vomiting, conjunctivitis; • at baseline: shortness of breath, whistling/wheezing breathing, dizziness, conjunctivitis, chills, muscle pain, limb pain, limitation of activity (a score of 2 in the WHO scale of COVID-19 severity developed in 2020; https://apps.who.int/iris/rest/bitstreams/1266940/retrieve, last accessed on 20 Mar. […]

[4] = system: antibodies directed against the nucleocapsid (N) protein of SARS-CoV-2; experiment: Anti-N antibody levels (AProof Duo Test ELISA) at 6-month follow-up, COVit-2 trial; assay type: in vivo, human
[5] = system: COVID-19 patients (PCS symptoms); experiment: Generalised Anxiety Disorder 7 (GAD-7) at 6-month follow-up, COVit-2 pilot population; assay type: in vivo, human; details: pilot population n=50
From the text: (§4) In the monocentric, randomized, double-blind, prospective, placebo-controlled dietary intervention trial COVit-2 (DRKS00021214; NCT04751604) conducted at the Department of Internal Medicine I of the University Medical Center Schleswig-Holstein, Campus Kiel (Germany), outpatients with early symptomatic COVID-19 (up to 7 days after their first positive SARS-CoV-2 PCR test) in domestic quarantine were recruited from February 2021 to January 2022. […]
(§5) Approximately 6 months after infection, patients were contacted for follow-up interviews and a large battery of questionnaires and tests including antibody level measurements. […] A validated smell test (University of Pennsylvania Smell Identification Test™; Sensonics/MediSense) was performed by the patient and recorded as patient-reported outcome by a paper questionnaire. Questionnaires on olfactory and gustatory abilities (incl. the Self-reported Mini Olfactory Questionnaire, Self-MOQ, and the Questionnaire of Olfactory Disorders, QOD), respiration (Multidimensional Dyspnea Profile, MDP), mental state (Patient Health Questionnaire Depression, PHQ-8; Generalised Anxiety Disorder 7, GAD-7; Perceived Stress Scale, PSS; Brief Resilience Scale, BRS), sleep quality (Pittsburgh Sleep Quality Index, PSQI) and fatigue (Multidimensional Fatigue Inventory, MFI) were recorded as patient-reported outcomes by paper questionnaires. […]

[6] = system: COVID-19 patients; experiment: Impaired sense of smell in acute COVID-19 (patient interviews, change to baseline), COVit-2 risk factor population; assay type: in vivo, human; details: for Impaired sense of smell: Persistence (no change), frequency / Impaired sense of smell: Resolution of impairment (return to normal), frequency / Impaired sense of smell: Worsening (new impairment), frequency: number of patients
From the text: as §1, §2
(§6) The COVit-2 trial (see Example 2) was expanded to a total of n=900 randomized patients. Of these, n=500 patients had at least one characteristic or underlying medical condition associated with an increased risk of developing severe illness from COVID-19, which was the population that had benefited most from nicotinamide supplementation in the acute phase of the disease (Wätzig & Schreiber 2021, PCT/EP2021/083138) and is hereinafter referred to as ‘risk factor population’.
(§7) In contrast, in the final analysis of n=500 patients of the risk factor population (the primary analysis population for acute COVID-19 in the COVit-2 trial), there was rather a trend favouring placebo, as evidenced by the rates of resolved, constant or newly occurring impairment shown in Table 2 to Table 5 below.
(§8) Here, the efficacy variables “impaired sense of smell” (yes/no) and “impaired sense of taste” (yes/no) from patient interviews represent the broadest and most sensitive approach, as other more specific tests or questions miss aspects of smell or taste that are not explicitly queried and thus may fail to detect significant differences. In the acute phase of the COVit-2 trial, these variables were analyzed using change to baseline, considered as resolution (symptom present at baseline but not at week x), persistence (no change compared to baseline) or worsening (symptom present at week x but not at baseline). The frequency of patients with symptom resolution, persistence or worsening for all weeks by treatment group was compared using the Cochran-Mantel-Haenszel test. Post-hoc tests for each week were calculated using the Fisher Exact test with Benjamini & Hochberg adjustment for multiple testing. The Woolfe test was performed to test for homogeneity of odds ratios across time. […]

[7] = system: COVID-19 patients (PCS symptoms); experiment: Patient Health Questionnaire Depression (PHQ-8) at 6-month follow-up, COVit-2 pilot population; assay type: in vivo, human; details: pilot population n=50
From the text: as §4, §5

[8] = system: COVID-19 patients (PCS symptoms); experiment: Cognition test T3MS at 6-month follow-up, COVit-2 pilot population; assay type: in vivo, human
From the text: as §4, §5

[9] = system: COVID-19 patients; details: week 2; of 92 patients treated with nicotinamide
[10] = system: COVID-19 patients; experiment: Impaired sense of taste at 6 months after COVID-19, COVit-2 risk factor population; assay type: in vivo, human
From the text: as §2, with “At weeks 2, 4 and 6, regular intake of the trial supplements and concomitant supplements and medicaments, respectively, was queried as well as the current COVID-19 symptoms and disease course.” left out
as §3

[11] = system: COVID-19 patients; details: acute phase, baseline until Week 6, mainly at week 2; interim analysis n=402; cited from earlier work
[12] = system: COVID-19 patients; experiment: Impaired sense of taste in acute COVID-19 (patient interviews, change to baseline), COVit-2 risk factor population; assay type: in vivo, human; details: for Impaired sense of taste: Persistence (no change), frequency / Impaired sense of taste: Resolution of impairment (return to normal), frequency / Impaired sense of taste: Worsening (new impairment), frequency: number of patients
From the text: as §1, §2, §6, §7, §8

[13] = system: COVID-19 patients (PCS symptoms); experiment: University of Pennsylvania Smell Identification Test (UPSIT) at 6-month follow-up, COVit-2 pilot population; assay type: in vivo, human; details: pilot population n=50
From the text: as §4, §5

[14] = system: COVID-19 patients (PCS symptoms); experiment: Perceived Stress Scale (PSS) at 6-month follow-up, COVit-2 pilot population; assay type: in vivo, human; details: pilot population n=50
From the text: as §4, §5

[15] = first 50 patients per trial arm
[16] = n=50, negative if below 22 BAU/mL
[17] = n=50, positive if above 44 BAU/mL
[18] = 6 months after COVID-19, N = 236
[19] = n=50, negative if below 20% of positive control
[20] = n=50, positive if above 30% of positive control
[21] = acute phase, baseline until Week 6

Structure (SMILES): NC(=O)c1cccnc1 [Nicotinamide, nicotinamide]
- Anti-S antibodies, median [1, 15]: 813 BAU/mL
- Anti-S antibodies, % negative [1, 16]: 2%
- Anti-S antibodies, n negative [1, 16]: 1
- Anti-S antibodies, % positive [1, 17]: 94%
- Anti-S antibodies, n positive [1, 17]: 47
- Anti-S antibodies, median ([1]; patients with at least one characteristic or condition associated with increased risk of severe COVID-19): 1,121 BAU/mL
- Impaired sense of smell, % of patients [2, 18]: 11.02%
- effect on frequency of impaired sense of smell ([2]; after six months): significantly reduced frequencies
- PCS score, mean [3]: 3.66
- Anti-N antibodies, median [4, 15]: 10% + control
- Anti-N antibodies, % negative [4, 19]: 66%
- Anti-N antibodies, n negative [4, 19]: 33
- Anti-N antibodies, % positive [4, 20]: 28%
- Anti-N antibodies, n positive [4, 20]: 14
- median GAD-7 score [5]: 3
- Impaired sense of smell: Persistence (no change), frequency ([6]; Week 2): 155
- Impaired sense of smell: Resolution of impairment (return to normal), frequency ([6]; Week 2): 61
- Impaired sense of smell: Worsening (new impairment), frequency ([6]; Week 2): 32
- Impaired sense of smell: Persistence (no change), frequency ([6]; Week 4): 150
- Impaired sense of smell: Resolution of impairment (return to normal), frequency ([6]; Week 4): 78
- Impaired sense of smell: Worsening (new impairment), frequency ([6]; Week 4): 20
- Impaired sense of smell: Persistence (no change), frequency ([6]; Week 6): 141
- Impaired sense of smell: Resolution of impairment (return to normal), frequency ([6]; Week 6): 92
- Impaired sense of smell: Worsening (new impairment), frequency ([6]; Week 6): 15
- effect on impaired sense of smell [6, 21]: no beneficial effect
- median PHQ-8 score [7]: 4
- proportion of patients with mild cognitive impairment (T3MS score <89) ([8]; patients with increased risk of developing severe COVID-19): 10%
- proportion of patients with mild cognitive impairment (T3MS score <89) ([8]; pilot population n=50): 8%
- shortness of breath: patients recovered [9]: 56
- Impaired sense of taste, % of patients [10, 18]: 8.05%
- effect on frequency of impaired sense of taste ([10]; after six months): significantly reduced frequencies
- benefit with regard to parameters of physical performance [11]: biologically and statistically significant benefit
- Impaired sense of taste: Persistence (no change), frequency ([12]; Week 2): 170
- Impaired sense of taste: Resolution of impairment (return to normal), frequency ([12]; Week 2): 56
- Impaired sense of taste: Worsening (new impairment), frequency ([12]; Week 2): 22
- Impaired sense of taste: Persistence (no change), frequency ([12]; Week 4): 159
- Impaired sense of taste: Resolution of impairment (return to normal), frequency ([12]; Week 4): 74
- Impaired sense of taste: Worsening (new impairment), frequency ([12]; Week 4): 15
- Impaired sense of taste: Persistence (no change), frequency ([12]; Week 6): 157
- Impaired sense of taste: Resolution of impairment (return to normal), frequency ([12]; Week 6): 83
- Impaired sense of taste: Worsening (new impairment), frequency ([12]; Week 6): 8
- effect on impaired sense of taste [12, 21]: no beneficial effect
- proportion of patients with strong microsmia/hyposmia (UPSIT score <26) [13]: 2%
- median PSS score [14]: 24
